Paper PMC2364952, “The Anti-Inflammatory Activity of Boron Derivatives in Rodents” (Metal-Based Drugs, 1995)

How the values were obtained:
[1] = system: carrageenan-induced inflammation of paw; assay: Carrageenan-induced paw edema, rats; type: in vivo, Sprague Dawley male rats; conditions: for Rat Inflammatory: 8 mg/kg x 2, I.P., Table 2;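 as to Rat Inflammatory: paw weight increase as percent of control rats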
[2] = system: acetic acid induced stretch reflex; assay: Local analgesic screen (acetic acid writhing); type: in vivo, CF1 mice; conditions: for Mice Writhing Reflex: 8 mg/kg I.P., Table 2; for reduction of the reflex action: mice, acetic acid induced local pain, 8 mg/kg
[3] = system: tail flick response to heat; assay: Hot plate tail flick screen; type: in vivo, CF1 male mice; conditions: for Mice Tail Flick: 8 mg/kg I.P., hot plate, Table 2; for tail flick assay time: mice, 8 mg/kg
[4] = system: carrageenan-induced pleural fluid; assay: Anti-pleurisy screen; type: in vivo, Sprague Dawley male rats; conditions: for pleurisy edema in rats: 8 mg/kg; for Rat Pleurisy: rats, 8 mg/kg I.P., 1 h before and 3 h after carrageenan, Table 2;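 as to Rat Pleurisy: Pleural fluid volume as percent of control rats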
[5] = system: adjuvant (M. butyricum) arthritis; assay: Chronic adjuvant arthritic screen; type: in vivo; conditions: rats; for Rat Chronic Arthritis: 8 mg/kg/day I.P., Day 3 to Day 21, Table 2
acid phosphatase = assay: Acid phosphatase activity, mouse macrophages; type: cell-based, mouse (J774 macrophages); conditions: Table 3; read-out: IC50 Acid Phosphatase, Mouse Macrophage
cathepsin = assay: Cathepsin activity, mouse macrophages; type: cell-based, mouse (J774 macrophages); conditions: Table 3; read-out: IC50 Cathepsin, Mouse Macrophage
aryl sulphatase = assay: Aryl sulfatase activity, mouse macrophages; type: cell-based, mouse (J774 macrophages); conditions: Table 3; read-out: IC50 Aryl Sulfatase, Mouse Macrophage
trypsin [6] = assay: Trypsin proteolytic activity, mouse macrophages; type: cell-based, mouse (J774 macrophages); conditions: Table 5; read-out: IC50 Trypsin, Mouse Macrophage
elastase [7] = assay: Elastase activity, mouse macrophages; type: cell-based, mouse (J774 macrophages); conditions: Table 5; read-out: IC50 Elastase, Mouse Macrophage
trypsin [8] = assay: Trypsin activity, UMR-106 osteosarcoma cells; type: cell-based; conditions: Table 6; read-out: IC50 Trypsin, Rat UMR-106 Bone Osteosarcoma
neutral cathepsin = assay: Cathepsin activity, UMR-106 osteosarcoma cells; type: cell-based; conditions: Table 6; read-out: IC50 Neutral Cathepsin, Rat UMR-106 Bone Osteosarcoma
elastase [9] = assay: Elastase activity, UMR-106 osteosarcoma cells; type: cell-based; conditions: Table 6; read-out: IC50 Elastase, Rat UMR-106 Bone Osteosarcoma
[10] = molecular target: prostaglandin cyclooxygenase; assay: Prostaglandin cyclooxygenase activity, macrophages; type: cell-based, mouse (J774 macrophages); conditions: Table 7
[11] = system: prostaglandin cyclooxygenase; assay: Prostaglandin cyclooxygenase activity, Be Sal cells; type: cell-based, human (Be Sal osteofibrolytic cells); conditions: Table 7; read-out: IC50 Prostaglandin Cyclooxygenase, Be Sal Osteofibro
[12] = molecular target: T1, prostaglandin cyclooxygenase (Bos taurus, UniProt O62664); assay: Prostaglandin synthetase from bovine seminal vesicles; type: biochemical; conditions: Table 7; read-out: IC50 Prostaglandin Cyclooxygenase, Beef Seminal Vesicle
T1 construct: purified commercial prostaglandin synthetase from bovine seminal vesicles (Miles Research Products); purchased Miles Research Products; host or cells: bovine seminal vesicles (tissue preparation)
T1 sequence (O62664 25-600): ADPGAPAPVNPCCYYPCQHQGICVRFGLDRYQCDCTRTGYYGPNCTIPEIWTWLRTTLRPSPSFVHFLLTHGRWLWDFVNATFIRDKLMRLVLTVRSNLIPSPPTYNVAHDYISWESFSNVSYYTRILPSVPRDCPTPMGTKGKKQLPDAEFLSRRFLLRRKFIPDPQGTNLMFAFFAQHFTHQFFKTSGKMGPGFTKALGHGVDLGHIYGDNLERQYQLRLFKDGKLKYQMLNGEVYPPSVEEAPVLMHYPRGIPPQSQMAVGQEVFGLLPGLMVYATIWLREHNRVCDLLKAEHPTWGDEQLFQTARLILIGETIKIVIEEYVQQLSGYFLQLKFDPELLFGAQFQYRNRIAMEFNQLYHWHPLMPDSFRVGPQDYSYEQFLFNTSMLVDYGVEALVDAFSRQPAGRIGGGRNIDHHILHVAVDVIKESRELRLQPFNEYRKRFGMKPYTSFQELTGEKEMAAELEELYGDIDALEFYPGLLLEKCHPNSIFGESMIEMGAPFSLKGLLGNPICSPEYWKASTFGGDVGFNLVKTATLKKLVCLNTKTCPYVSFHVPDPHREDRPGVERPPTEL

5'-lipoxygenase [13] = molecular target: T2, 5'-lipoxygenase (Mus musculus, UniProt P48999); assay: 5'-Lipoxygenase activity, mouse macrophages; type: cell-based; conditions: Table 7; read-out: IC50 5'-Lipoxygenase, Mouse Macrophage
T2 construct: endogenous in cells; host or cells: mouse macrophages (J774A as maintained above)
T2 sequence (P48999 1-674): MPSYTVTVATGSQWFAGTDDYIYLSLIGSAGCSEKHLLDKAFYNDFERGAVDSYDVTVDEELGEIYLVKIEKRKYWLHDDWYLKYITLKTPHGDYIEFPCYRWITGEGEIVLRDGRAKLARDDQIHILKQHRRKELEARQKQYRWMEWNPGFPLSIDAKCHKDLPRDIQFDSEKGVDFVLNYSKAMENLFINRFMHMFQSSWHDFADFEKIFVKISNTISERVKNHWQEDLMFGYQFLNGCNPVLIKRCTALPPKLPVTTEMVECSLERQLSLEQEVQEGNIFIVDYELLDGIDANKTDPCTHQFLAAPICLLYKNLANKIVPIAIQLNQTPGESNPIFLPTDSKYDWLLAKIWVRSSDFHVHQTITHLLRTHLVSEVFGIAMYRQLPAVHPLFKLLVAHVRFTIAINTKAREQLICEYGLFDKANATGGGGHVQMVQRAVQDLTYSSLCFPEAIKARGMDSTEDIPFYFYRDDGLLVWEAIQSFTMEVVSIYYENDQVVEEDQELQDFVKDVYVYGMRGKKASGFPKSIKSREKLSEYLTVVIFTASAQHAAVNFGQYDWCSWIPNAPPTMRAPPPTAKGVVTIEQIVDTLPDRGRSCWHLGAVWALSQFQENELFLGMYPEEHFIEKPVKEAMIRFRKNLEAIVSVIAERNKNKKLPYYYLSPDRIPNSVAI

5'-lipoxygenase [14] = molecular target: T3, 5'-lipoxygenase (Homo sapiens, UniProt P09917); assay: 5'-Lipoxygenase activity, human leukocytes; type: cell-based; conditions: Table 7
T3 construct: endogenous in cells; host or cells: RMPI 1788 human leukocytes
T3 sequence (P09917 1-674): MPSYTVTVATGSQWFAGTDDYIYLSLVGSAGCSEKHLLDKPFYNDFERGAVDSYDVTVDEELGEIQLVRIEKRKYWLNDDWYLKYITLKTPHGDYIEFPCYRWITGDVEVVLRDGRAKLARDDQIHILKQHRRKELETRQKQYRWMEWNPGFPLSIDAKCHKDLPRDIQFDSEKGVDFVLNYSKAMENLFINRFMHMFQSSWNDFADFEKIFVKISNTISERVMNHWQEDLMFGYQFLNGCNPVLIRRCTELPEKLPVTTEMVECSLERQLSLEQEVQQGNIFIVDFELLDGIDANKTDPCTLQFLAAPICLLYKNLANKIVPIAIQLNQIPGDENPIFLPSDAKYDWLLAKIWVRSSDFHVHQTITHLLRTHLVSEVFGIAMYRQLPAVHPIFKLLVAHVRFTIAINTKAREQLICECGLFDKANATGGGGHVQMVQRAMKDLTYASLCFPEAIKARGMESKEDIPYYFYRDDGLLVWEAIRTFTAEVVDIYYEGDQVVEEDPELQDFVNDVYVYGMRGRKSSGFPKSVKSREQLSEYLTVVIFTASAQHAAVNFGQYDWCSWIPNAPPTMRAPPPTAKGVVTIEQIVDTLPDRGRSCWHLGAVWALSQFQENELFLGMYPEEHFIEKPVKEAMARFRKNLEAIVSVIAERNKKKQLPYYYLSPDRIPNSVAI

[15] = system: carrageenan-induced inflammation of hind foot; assay: Carrageenan-induced foot edema, mice; type: in vivo, CF1 male mice; conditions: mice, 8 mg/kg x 2

SMILES	Rat Inflammatory [1]	Mice Writhing Reflex [2]	reduction of the reflex action [2]	Mice Tail Flick [3]	tail flick assay time [3]	pleurisy edema in rats [4]	Rat Pleurisy [4]	IC50 (acid phosphatase)	IC50 (cathepsin)	IC50 (aryl sulphatase)	IC50 (trypsin [6])	IC50 (elastase [7])	IC50 (trypsin [8])	IC50 (neutral cathepsin)	IC50 (elastase [9])	IC50 [10]	IC50 [11]	IC50 [12]	IC50 (5'-lipoxygenase [13])	IC50 (5'-lipoxygenase [14])	further results
O=C(O)[BH2-][P+](c1ccccc1)(c1ccccc1)c1ccccc1 [Compound 12]	61 % of control	19 % of control	80%	197 % of control	increased	reduced significantly	28 % of control	1.08 µM	5.52 µM	8.58 µM	1.77 µM	3.04 µM	5.67 µM	5.81 µM	8.86 µM	3.53 µM	5.49 µM	7.6 µM	9.8 µM	4.77 µM	activity in chronic arthritis screen ([5]; 8 mg/kg/day): significantly active; Rat Chronic Arthritis [5]: 49 % of control
C[N+](C)(C)[BH2-]C#N [Compound 34]	65 % of control	18 % of control	80%			reduced significantly	65 % of control	1.05 µM	6.34 µM	9.29 µM	1.41 µM	1.35 µM	2.62 µM	5.46 µM	8.99 µM	5.88 µM	4.26 µM	5.9 µM	8.07 µM	6.43 µM	reduction of pannus ([5]; 8 mg/kg/day): greater than 75%; Rat Chronic Arthritis [5]: 4 % of control
C[N+](C)(C)[BH2-]C(C#N)c1ccccc1 (centres unmarked) [Compound 46]		46 % of control	at least 45%	191 % of control	increased			7.72 µM	2.57 µM	3.4 µM	2.4 µM	5.21 µM				6.59 µM	2.33 µM	0.71 µM			
COC(=O)[BH2-][NH+](C)C [Compound 15]	59 % of control	12 % of control	80%	147 % of control	increased		86 % of control	1.04 µM	6.71 µM	7.41 µM	2.78 µM	2.14 µM	6.57 µM	6.1 µM	9.74 µM	2.81 µM	4.24 µM	2.86 µM	6.61 µM	5.37 µM	anti-inflammatory activity in mouse edema screen [15]: less active; reduction in induced edema in rats ([1]; 8 mg/kg x 2): at least 40%
C[NH+](C)[BH2-]C#N [Compound 33]	61 % of control	15 % of control	80%					1.13 µM	5.54 µM	9.02 µM	2.44 µM	2.53 µM	7.54 µM	6.24 µM	9.04 µM	5.92 µM			9.89 µM	3.47 µM	
